# How the values were obtained:
# [1] = system: corneal epithelial wound in C57BLl6J mice; assay: Murine corneal epithelial injury (wound healing) model; assay type: in vivo
# Protocol: Wounded areas were treated with Hst5, SHRGY (SEQ ID NO:2) or SP1 peptides (n=7 for each group), each tested at 80 μM concentration. Wound areas at multiple time points were measured using Image J software. […] Statistical significance was determined by a two-way ANOVA with Bonferroni post-hoc test. **P<0.01, ***P<0.001. % Wound area=(Wound area at time X/Wound area at time 0)×100.
# Wound Healing Assay. Corneal wounding experiments in mice were conducted in compliance with the Association for Research in Vision and Ophthalmology (ARVO) Statement for the Use of Animals in Ophthalmic and Vision Research. The protocol was approved by the Animal Care & Use Committee of the University of Illinois at Chicago. Twelve-to-nineteen week old C57BLl6J (Jackson Laboratory, Bar Harbor, Me.) mice were anesthetized with intraperitoneal injection of ketamine (100 mg/kg) and xylazine (5 mg/kg). After applying two drops of topical 0.5% proparacaine, a 2.0-mm area of the central epithelium was demarcated using 2-mm disposable biopsy punch and removed by an AlgerBrush II (The Alger Company, Lago Vista, Tex.). In the treatment (n=7) or the control (n=7) group, Histatin=5 (80 μM), SHRGY peptide (SEQ ID NO:2; 80 μM), or SP1 (80 μM) was applied to the cornea three times a day. At 0, 18 and 24 hours, the corneas were stained with fluorescein (FUL-GLO® Fluorescein Sodium ophthalmic strips, Akorn, Lake forest, Ill.) and photographed using a NIKON FS-2 photo-slit lamp with a NIKON D200 camera (Melville, N.Y.). Wound sizes were compared with the baseline for each mouse and the percentages of wound closure was measured using Image J software.
# For immunofluorescence, excised whole mouse eye was snap frozen in optimal cutting temperature compound (OCT; (Fisher Healthcare, Galderma, Calif.). The frozen tissues were cut into 10 μm cryosections (ThermoScientific NX50 Cryomicrotome, Waltham, Mass.) and subsequently were mounted on Superfrost plus slides (Thermofisher, Waltham, Mass.). Slides were fixed for 20 minutes in methanol, washed several times with PBS, stained with DAPI for 2 minutes, and further washed with PBS and deionized water. The slides were then mounted in Fluoro gel with Tris buffer (Electron Microscopy Sciences, Hattfield, Pa.) and observed under a confocal microscope (Zeiss LSM 710 Confocal Microscope, Oberkochen, Germany) using a 10× objective.
# Thus, Hst5 and SHRGY (SEQ ID NO:2)-containing peptides can enhance wound healing in a well-vetted model of murine corneal epithelial injury.
# [2] = system: epithelial cell migration; assay: In vitro scratch assay, truncation and scrambled peptide series (FIG. 1; cell line not given); assay type: cell-based; details: 80 μM; FIG. 1; vs untreated control
# Protocol: Peptides were tested for efficacy in accelerating scratch closure rates. Negative controls included untreated and multiple scrambled peptide (SP) controls. All peptides were tested at 80 μM concentration. All experiments were performed in triplicate with three technical replicates for each experiment. Statistical significance was determined by one-way ANOYA with Dunnett's post-hoc test. *p<0.05; **p<0.01; ***p<0.001. Relative closure=(% closure of treated sample)/(% closure of Untreated control).
# In Vitro Scratch Assay. HCE, HCLE, HELA and MCF-7 cells were cultured in a 24-well plate at 2.5×10^5 (cells/well) seeding density, and were grown to confluence on a 24-well plate. Subsequently, a straight-line scratch mark was made with a sterile P200 pipette tip. The cells were then washed twice with phosphate-buffered saline (PBS) to remove cellular debris. Wounded areas were then treated with the peptides provided in Table 5 at various concentrations in standard medium with reduced serum conditions (0.5% FBS in MEM medium (HCE), growth factor-free K-SFM media (HCLE), 1% FBS in DMEM medium (HeLa) and 0.5% FBS in RPMI 1640 medium (MCF-7)). Scratches were photographed microscopically at 4× magnification (Image Express Micro, Molecular Devices, San Jose, Calif.) every hour over the course of the experiment. The wound area at each time-point was measured using Image J software (Image J 1.47v, NIH, Thornwood, Bethesda, Md.). Relative wound closure was calculated by dividing the closure of the treated wound by that of the untreated wound. For all the experiments including truncated histatin-5, a final concentration of 80 μM was used. PD98059 (Calbiochem, San Diego, Calif.) at final concentration of 50 μM was used as a specific inhibitor of MEK. PD98059 was added to cell cultures at the same time as histatin peptides.
# To identify the residues of Hst5 required for epithelial cell migration, serial truncation experiments were performed, progressively deleting residues in Hst5. […] All peptides were tested at 80 μM. […] Thus, the SHRGY (SEQ ID NO:2) sequence is necessary and sufficient to promote epithelial migration rates in in vitro scratch assays.
# pERK1/2 = assay: Western blot for pERK1/2 after wounding; assay type: cell-based; details: wounded cells, compared with wounding alone
# Protocol: Western Blot. Western blot was performed following standard methods. Protein lysate (20 μg) was boiled in NuPAGE™ LDS sample buffer (Invitrogen, Carlsbad, Calif.) for 10 minutes and then subjected to electrophoresis on 12% NuPAGE™ Bis-Tris gels (Invitrogen, Carlsbad, Calif.), followed by transfer to nitrocellulose membranes (Amersham Protran, GE Healthcare, Pittsburgh, Pa.). Membranes were then blocked with Tris-buffered saline containing 3% nonfat dry milk for 1 hour and incubated with primary antibody against pERK1/2 (Cell Signaling, Danver, Mass.) (1:1000) overnight at 4° C. After washing in 0.05% Tris-buffered saline containing 0.05% polysorbate 20, membranes were then incubated for 1 hour with goat anti-rabbit-HRP (BD Biosciences, San Jose, Calif.) (1:2000) as the secondary antibody. The membranes were developed using X-ray film and ECL Pro solution (PerkinElmer, Waltham, Mass.). Beta-actin was used as an internal control.
# The level of activation/phosphorylation of ERK with and without wounding and with and without Hst5 application were investigated to determine whether the cellular signaling pathways underpinning the pro-migratory effects of Hst5 were similar to those of Hst1 in other epithelial cell types. Wounding causes an increased in phosphorylated form of ERK1/2 (p-ERK1/2). […]
sequence,measurement,setting,value
DSHAKRHHGYKRKFHEKHHSHRGY [Hst5],% remaining corneal wound area compared to baseline,"[1]; 80 μM, 18 hours and 24 hours, compared to SP1, n=7",statistically significant improvement
same,"corneal wound size, histologic analysis (DAPI cross sections)",[1]; compared to SP1-treated controls,reductions in corneal wound size
same,corneal wound closure rates,"[1]; topical, 80 μM, three times a day, vs scrambled peptide control SP1",significant improvement in corneal wound closure rates
same,"scratch (wound) closure rates, relative closure",[2],significant increases in scratch closure rates
same,pERK1/2 levels (Western blot),pERK1/2,further increased
